Test results reported in patent US10829484B2, “Compounds and methods for kinase modulation, and indications therefor” (Plexxikon Inc., priority 2015, dated 2020).

What follows are compounds tested against T1, BaF3-FLT3-ITD-D835V (Homo sapiens, UniProt P36888, INS600HVDFREYEYD/D835V, cells depend on it) (assay: CTB viability assay CS0048, BaF3-FLT3-ITD-D835V). Details: BaF3-FLT3-ITD-D835V cells, CellTiter Blue viability, 72 hours; read-out: Cell Assay: CS0048: BaF3-FLT3-ITD-D835V CTB:IC50.
T1 sequence (P36888 with tags, fused parts or gaps INS600HVDFREYEYD/D835V): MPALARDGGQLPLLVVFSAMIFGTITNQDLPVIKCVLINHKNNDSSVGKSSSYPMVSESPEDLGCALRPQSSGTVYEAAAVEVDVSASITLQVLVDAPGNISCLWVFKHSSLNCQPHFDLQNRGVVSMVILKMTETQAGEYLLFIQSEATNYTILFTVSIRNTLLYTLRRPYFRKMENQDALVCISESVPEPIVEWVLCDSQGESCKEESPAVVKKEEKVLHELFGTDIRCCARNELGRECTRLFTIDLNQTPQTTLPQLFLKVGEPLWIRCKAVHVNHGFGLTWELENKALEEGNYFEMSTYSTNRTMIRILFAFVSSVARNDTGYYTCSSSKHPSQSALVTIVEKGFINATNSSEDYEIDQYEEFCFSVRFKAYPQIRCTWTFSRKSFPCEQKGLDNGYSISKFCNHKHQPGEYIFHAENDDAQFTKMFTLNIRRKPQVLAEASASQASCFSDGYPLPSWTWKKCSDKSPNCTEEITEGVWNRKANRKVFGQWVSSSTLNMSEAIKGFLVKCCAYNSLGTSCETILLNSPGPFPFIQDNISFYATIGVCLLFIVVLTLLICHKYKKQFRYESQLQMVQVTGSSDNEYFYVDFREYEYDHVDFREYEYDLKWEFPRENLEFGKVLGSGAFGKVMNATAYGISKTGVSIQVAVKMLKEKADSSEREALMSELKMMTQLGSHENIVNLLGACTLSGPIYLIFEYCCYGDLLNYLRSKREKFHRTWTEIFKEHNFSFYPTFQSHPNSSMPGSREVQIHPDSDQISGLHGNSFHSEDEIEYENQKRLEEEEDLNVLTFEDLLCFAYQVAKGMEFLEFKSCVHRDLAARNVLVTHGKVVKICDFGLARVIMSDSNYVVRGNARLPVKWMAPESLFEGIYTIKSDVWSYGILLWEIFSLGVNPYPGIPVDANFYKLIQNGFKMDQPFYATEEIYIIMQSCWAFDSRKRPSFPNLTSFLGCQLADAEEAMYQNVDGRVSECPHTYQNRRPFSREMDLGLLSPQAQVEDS
Format: cell-based, murine
Outline: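 Murine Ba/F3 cells made IL-3-independent by retroviral human FLT3-ITD (MV4-11 ITD), ±F691L or D835V, serum-starved overnight in 0.5% FBS. 3-fold compound dilutions applied 72 h at 37° C; viability by CellTiter Blue fluorescence (ex 560/em 590 nm), normalized to DMSO, IC50 from duplicate plates.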

| SMILES | GI50 [nM] |
| --- | --- |
| Cc1nn(C)c(C)c1Nc1ncc(-c2ccc(CC(=O)Nc3cc(C4(C(F)(F)F)CC4)on3)c(F)c2)cn1 [P-029, 2-[2-fluoro-4-[2-[(l,3,5-trimethylpyrazol-4-yl)amino]pyrimidin-5-yl]phenyl]-N-[5-[1-(trifluoromethyl)cyclopropyl]isoxazol-3-yl]acetamide] | 10 to 50 |
| O=C(O)Cn1cc(Nc2ncc(-c3ccc(CC(=O)Nc4cc(C5(C(F)(F)F)CC5)on4)c(F)c3)cn2)cn1 [P-078, 2-[4-[[5-[3-fluoro-4-[2-oxo-2-[[5-[1-(trifluoromethyl)cyclopropyl]isoxazol-3-yl]amino]ethyl]phenyl]pyrimidin-2-yl]amino]pyrazol-1-yl]acetic acid] | 50 to 100 |

Same assay, conditions: Table 3; CellTiter Blue viability, 72 hours; read-out: Cell Assay: CS0048: BaF3-FLT3-ITD-D835V CTB: IC50

| SMILES | GI50 [nM] |
| --- | --- |
| O=C(Cc1ccc(-c2cnc(Nc3ccccc3)nc2)cc1F)Nc1cc(C2(C(F)(F)F)CC2)on1 | 0.772 |
| Cn1cc(Nc2ncc(-c3ccc(CC(=O)Nc4cc(C5(C(F)(F)F)CC5)on4)c(F)c3)cn2)cn1 | 0.259 |

Same assay, conditions: Table 4, compounds from WO 2011/022473; CellTiter Blue viability, 72 hours; read-out: Cell Assay: CS0048: BaF3-FLT3-ITD-D835V CTB: IC50

| SMILES | GI50 [nM] |
| --- | --- |
| CC(C)(c1cc(NC(=O)Cc2ccc(-c3ccc(NCCN4CCOCC4)nc3)cc2)no1)C(F)(F)F [reference compound] | 145 |
| CNc1ccc(-c2ccc(CC(=O)Nc3cc(C(C)(C)C)on3)cc2)cn1 [reference compound] | 92 |
| CCNc1ccc(-c2ccc(CC(=O)Nc3cc(C(C)(C)C)on3)cc2)cn1 [reference compound] | 94.2 |
| CC(C)(C)c1cc(NC(=O)Nc2ccc(-c3cnc(NC4CCOCC4)nc3)cn2)no1 [reference compound] | 673 |
| CC(C)(C)c1cc(NC(=O)Nc2ccc(-c3cnc(NC4CC4)nc3)cn2)no1 [reference compound] | 585 |
